Key:
[1] = test system: open leg ulcer with fibrous coating; assay: Wound dressing soaked with NCT solution on open leg ulcer with fibrous coating (case report); type: in vivo, human; conditions: single patient
Experimental: A human patient suffering from an open leg ulcer with fibrous coating caused by a burn accident was treated two times daily with wound dressing soaked with aqueous 1% NCT solution. […] Microbiological cultures of swabs before and after therapy were sterile.

[2] = Storage stability of aqueous NCT solution; type: physicochemical; conditions: 1% (55 mM) aqueous solution stored at 2-4° C.
Experimental: Pure NCT as a crystalline sodium salt was dissolved in sterile distilled water to a concentration of 1% (55 mM). Purity was verified by iodometric titration and spectrophotometry. […] Solutions were stored at 2-4° C., where they are stable for 1 year, and allowed to reach room temperature before application to the patients.

[3] = Pilot study (open phase IIa) after tympanoplasty: tolerability; type: in vivo, human; conditions: 12 patients
Experimental: (§1) After removing the ear-tamponade, which remained in place for 2 to 3 weeks postoperatively, 3 ml of the 1% aqueous NCT solution was applied once daily to the outer ear canal. The endpoint of the treatment was defined as a completely dry canal, corresponding to a clinical score of zero (see below for scoring).
The second criterion was subjective pain, ascertained by a visual analogue scale.
Before and at the end of the study an audiogram was performed in all patients.
All subjects completed the study.

[4] = test system: outer ear canal; assay: Pilot study (open phase IIa), postoperative irrigation of external auditory canal after tympanoplasty: efficacy; type: in vivo, human; conditions: 12 patients
Experimental: Local irrigations of the external auditory canal with 3 ml of 1% N-chlorotaurine solution were performed once daily until the canal was dry.
An open phase IIa study was performed in 12 patients after tympanoplasty. They received a single-shot antibiotic therapy with 2 g Spizef (cefotiam) i.v. perioperatively.
as §1
The primary criterion for the judgement of the status of the external meatus was a six-scale clinical score (0-5) based on visual observation via ear microscopy (zero=dry outer ear canal; 5=moist outer ear canal with inflammation).
Clinical examination of the outer ear canal was performed daily for detection of moisture, signs of infection, and judgement of epithelisation of the neo-tympanon.
A completely dry external meatus (score zero) was considered as the endpoint criterion for the termination of the study.
Moisture and inflammation of the external auditory canal during and after irrigation with NCT were compared to those before treatment using the Wilcoxon test. P-values <0.05 were considered to indicate statistical significance. Due to the limited number of patients no corrections for multiple comparisons were applied.

[5] = test system: oozing ear channel; assay: Instillation/rinsing of the oozing ear channel with NCT solution after tympanoplasty (case reports); type: in vivo, human
Excerpt: Rinsing the ear channel with NCT solution provokes in general a drying of the ear channel and the tympanoplastic within 1-2 days.
A human patient with a traumatic perforation of the tympanic membrane was provided with a tympanoplasty. After removing incrustations and granulation tissue, the destroyed tympanic membrane was excised and substituted by a fascia temporalis. After taking away the tamponade, the microbiological culture of a swab from the reconstructed tympanic membrane and the ear channel was sterile. Subsequently, the oozing ear channel was treated one time daily for two days by instillation of 2 mL of aqueous 1% NCT solution. […] The complete epithelization was achieved 3 days earlier than by the conventional treatment with fuchsine.
A human patient suffering from a perforation of the tympanic membrane caused by a chronic inflammation of the middle ear received tympanoplasty. After removing incrustations and granulation tissue, the destroyed tympanic membrane was excised and substituted by a fascia temporalis. After taking away the tamponade, the microbiological culture of a swab from the reconstructed tympanic membrane and the ear channel was sterile. Subsequently, the oozing and swollen ear channel was treated one time daily for five days by instillation of 2 mL of aqueous 1% NCT solution. […] The complete epithelization was achieved 3 days earlier than by the conventional treatment with fuchsine.

[6] = pH of aqueous NCT solution; type: physicochemical; conditions: no buffers
[7] = single patient after tympanoplasty, 2 mL aqueous 1% NCT solution one time daily

O=S(=O)(O)CCNCl [NCT, N-chlorotaurine]
treatment time after which fibrous coating disappeared ([1]; burn accident, dressing soaked with aqueous 1% NCT solution two times daily): three | microbiological cultures of swabs before and after therapy ([1]; aqueous 1% NCT solution two times daily): sterile | healing process ([1]; dressing soaked with aqueous 1% NCT solution two times daily): went on without problems | stability of solutions on storage [2]: 1 year | allergic reactions during the whole period of treatment ([3]; 3 ml 1% NCT once daily): no signs of allergic reactions | damage to the inner ear (audiogram before and after treatment) ([3]; 3 ml 1% NCT once daily): no signs of damage to the inner ear | dizziness or nystagmus ([3]; 3 ml 1% NCT once daily): No dizziness or nystagmus occurred | subjective pain (visual analogue scale) ([3]; 3 ml 1% NCT once daily): without occurrence of any pain | tolerability of therapy ([3]; 3 ml 1% NCT once daily to outer ear canal): tolerated very well | epithelisation of the new tympanon on ear microscopy ([4]; 3 ml 1% NCT once daily): proceeded regularly without granulation | infection in the postoperative course ([4]; 3 ml 1% NCT once daily): No infection occurred | necessary time for achieving a score of zero (range) ([4]; 3 ml 1% NCT once daily): 2 to 5 days | time needed for complete epithelisation (mean±SD) ([4]; 3 ml 1% NCT once daily): 22.6 ± 3.5 days | time needed for complete epithelisation (range) ([4]; 3 ml 1% NCT once daily): 18 to 31 days | average clinical score (0-5) ([4]; 3 ml 1% NCT once daily, days 2-5 vs day 1, Wilcoxon p=0,001-0,002): decreased daily | necessary time for achieving a score of zero (mean±SD) ([4]; 3 ml 1% NCT once daily, score zero = dry outer ear canal): 2.75 ± 0.87 days | drying of the outer ear canal ([4]; 3 ml 1% aqueous NCT once daily): Rapid drying of the outer ear canal was detected in all patients | period of oozing subsequent to operations ([5]; e.g. otoplastic operations, general statement): reduced the period of oozing | drying of the ear channel and the tympanoplastic ([5]; rinsing the ear channel with NCT solution, general statement): 1 to 2 days | time after which oozing ceased ([5]; single patient after tympanoplasty, 2 mL aqueous 1% NCT solution instilled one time daily): three | time after which swelling ceased ([5]; single patient after tympanoplasty, 2 mL aqueous 1% NCT solution instilled one time daily for five days): two | complete epithelization achieved earlier than by conventional treatment with fuchsine [5, 7]: 3 days | incorporation of the temporal fascia [5, 7]: proceeded without problems | pH of aqueous solutions [6]: 8

Source: patent publication US20070010582A1, “Use of N-chlorotaurine for treatment of oozing tissue deficiencies” (priority 2005, published 2007)
